System: ATF4 luciferase reporter in HEK293T cells
Assay: ATF4-Luc assay (in vitro model of VWMD)
Type: cell-based, human
Conditions: Homo sapiens, HEK-293T, 7 h, HEK293T cells carrying the ATF4 luciferase reporter, 1 μg/mL tunicamycin, One Glo luminescence
Outline: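 Tunicamycin (1 μg/mL) stress with co-added compound for 7 hours in HEK293T cells stably carrying an ATF4 5′-UTR–luciferase reporter. EC50 values come from the luminescent signal (One Glo).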

Question: With O=C(NC12CC(n3cc(C(=O)N4CC(COC(F)F)C4)cn3)(C1)C2)[C@H]1C[C@@H](O)c2cc(Cl)ccc2O1 [Compound 348, (2R,4R)-6-chloro-N-[3-(4-{3-[(difluoromethoxy)methyl]azetidine-1-carbonyl}-1H-pyrazol-1-yl)bicyclo[1.1.1]pentan-1-yl]-4-hydroxy-3,4-dihydro-2H-1-benzopyran-2-carboxamide] as the molecule, how does the EC50 read?
Answer: 50 to 250 nM

Question: How did the EC50 turn out when COc1ccc2nn(C34CC(NC(=O)[C@H]5C[C@@H](O)c6cc(Cl)c(F)cc6O5)(C3)C4)cc2c1 [Compound 505, (2R,4R)-6-chloro-7-fluoro-4-hydroxy-N-[3-(5-methoxy-2H-indazol-2-yl)bicyclo[1.1.1]pentan-1-yl]-3,4-dihydro-2H-1-benzopyran-2-carboxamide] was run?
Answer: < 10 nM

Question: For O=C(NC12CC(n3cc(C[C@H]4C[C@@H](OC(F)(F)F)C4)cn3)(C1)C2)[C@H]1C[C@@H](O)c2cc(Cl)ccc2O1 [Compound 531, (2R,4R)-6-chloro-4-hydroxy-N-[3-(4-{[(1s,3R)-3-(trifluoromethoxy)cyclobutyl]methyl}-1H-pyrazol-1-yl)bicyclo[1.1.1]pentan-1-yl]-3,4-dihydro-2H-1-benzopyran-2-carboxamide], which EC50 is on record?
Answer: 10 to 50 nM

Question: COc1ncc(-c2cnn(C34CC(NC(=O)[C@H]5C[C@@H](O)c6cc(Cl)ccc6O5)(C3)C4)c2)cn1 [Compound 320, (2R,4R)-6-chloro-4-hydroxy-N-{3-[4-(2-methoxypyrimidin-5-yl)-1H-pyrazol-1-yl]bicyclo[1.1.1]pentan-1-yl}-3,4-dihydro-2H-1-benzopyran-2-carboxamide] was tested. Which EC50 did it give?
Answer: 10 to 50 nM

Question: For O=C(NC12CC(n3cc(N4CC[C@@H](OC(F)(F)F)C4)cn3)(C1)C2)[C@H]1C[C@@H](O)c2cc(C(F)(F)F)ccc2O1 [Compound 579, (2R,4R)-4-hydroxy-N-(3-{4-[(3R)-3-(trifluoromethoxy)pyrrolidin-1-yl]-1H-pyrazol-1-yl}bicyclo[1.1.1]pentan-1-yl)-6-(trifluoromethyl)-3,4-dihydro-2H-1-benzopyran-2-carboxamide], which EC50 is on record?
Answer: < 10 nM

Question: O=C(NC12CC(n3cc(-c4ccc(OC(F)(F)F)cn4)cn3)(C1)C2)[C@@H]1C[C@H](O)c2cc(C(F)(F)F)ccc2O1 [Compound 338, (2S,4S)-4-hydroxy-N-(3-{4-[5-(trifluoromethoxy)pyridin-2-yl]-1H-pyrazol-1-yl}bicyclo[1.1.1]pentan-1-yl)-6-(trifluoromethyl)-3,4-dihydro-2H-1-benzopyran-2-carboxamide] was tested. Which EC50 did it give?
Answer: < 10 nM

Question: How did the EC50 turn out when COc1ncc(-c2cnn(C34CC(NC(=O)[C@H]5C[C@@H](O)c6cc(C(F)(F)F)c(F)cc6O5)(C3)C4)c2)cn1 [Compound 639, (2R,4R)-7-fluoro-4-hydroxy-N-{3-[4-(2-methoxypyrimidin-5-yl)-1H-pyrazol-1-yl]bicyclo[1.1.1]pentan-1-yl}-6-(trifluoromethyl)-3,4-dihydro-2H-1-benzopyran-2-carboxamide] was run?
Answer: < 10 nM

Question: For O=C(COc1ccc(Cl)cc1O)NC12CC(n3cc([C@H]4C[C@@H](OC(F)(F)F)C4)nn3)(C1)C2 [Compound 618, 2-(4-chloro-2-hydroxyphenoxy)-N-(3-{4-[(1s,3s)-3-(trifluoromethoxy)cyclobutyl]-1H-1,2,3-triazol-1-yl}bicyclo[1.1.1]pentan-1-yl)acetamide], which EC50 is on record?
Answer: 10 to 50 nM

Question: Which EC50 does the source give for O=C(NC12CC(c3ccc(C(=O)N4CC(COC(F)(F)F)C4)nc3)(C1)C2)[C@H]1C[C@@H](O)c2cc(Cl)ccc2O1 [Compound 537, (2R,4R)-6-chloro-4-hydroxy-N-[3-(6-{3-[(trifluoromethoxy)methyl]azetidine-1-carbonyl}pyridin-3-yl)bicyclo[1.1.1]pentan-1-yl]-3,4-dihydro-2H-1-benzopyran-2-carboxamide] here?
Answer: < 10 nM

Question: For O=C(NC12CC(n3cc(OCCOC(F)(F)F)cn3)(C1)C2)[C@@H]1C[C@@H](O)c2cc(Cl)ccc2O1 [Compound 631, (2S,4R)-6-chloro-4-hydroxy-N-(3-{4-[2-(trifluoromethoxy)ethoxy]-1H-pyrazol-1-yl}bicyclo[1.1.1]pentan-1-yl)-3,4-dihydro-2H-1-benzopyran-2-carboxamide], which EC50 is on record?
Answer: 10 to 50 nM

Question: O=C(NC12CCC(n3cc(-c4ccc(C(F)(F)F)cn4)cn3)(C1)C2)[C@H]1C[C@@H](O)c2cc(Cl)c(F)cc2O1 [Compound 627, (2R,4R)-6-chloro-7-fluoro-4-hydroxy-N-(4-{4-[5-(trifluoromethyl)pyridin-2-yl]-1H-pyrazol-1-yl}bicyclo[2.1.1]hexan-1-yl)-3,4-dihydro-2H-1-benzopyran-2-carboxamide] was tested. Which EC50 did it give?
Answer: < 10 nM

Question: How did the EC50 turn out when O=C(NC12CC(n3cc(-c4ccc(OC(F)(F)F)cc4)nn3)(C1)C2)[C@H]1C[C@@H](O)c2cc(Cl)ccc2O1 [Compound 357, (2R,4R)-6-chloro-4-hydroxy-N-(3-{4-[4-(trifluoromethoxy)phenyl]-1H-1,2,3-triazol-1-yl}bicyclo[1.1.1]pentan-1-yl)-3,4-dihydro-2H-1-benzopyran-2-carboxamide] was run?
Answer: < 10 nM

Question: How did the EC50 turn out when O=C(CO[C@H]1C[C@@H](OC(F)(F)F)C1)N[C@H]1C[C@H]2C[C@@H]1C[C@@H]2NC(=O)[C@@H]1C[C@@H](O)c2cc(Cl)ccc2O1 [Compound 388, (2S,4R)-6-chloro-4-hydroxy-N-[(1R,2S,4R,5S)-5-(2-{[cis-3-(trifluoromethoxy)cyclobutyl]oxy}acetamido)bicyclo[2.2.1]heptan-2-yl]-3,4-dihydro-2H-1-benzopyran-2-carboxamide] was run?
Answer: 50 to 250 nM

Question: With O=C(NC12CC(n3cc(-c4ccc(OC(F)(F)F)cn4)cn3)(C1)C2)[C@@H]1C[C@@H](O)c2cc(Cl)ccc2O1 [Compound 346, (2S,4R)-6-chloro-4-hydroxy-N-(3-{4-[5-(trifluoromethoxy)pyridin-2-yl]-1H-pyrazol-1-yl}bicyclo[1.1.1]pentan-1-yl)-3,4-dihydro-2H-1-benzopyran-2-carboxamide] as the molecule, how does the EC50 read?
Answer: < 10 nM

Question: For O=C(NC12CC(c3ccnc(-n4cc(C(F)(F)F)cn4)c3)(C1)C2)[C@H]1C[C@@H](O)c2cc(Cl)ccc2O1 [Compound 560, (2R,4R)-6-chloro-4-hydroxy-N-(3-{2-[4-(trifluoromethyl)-1H-pyrazol-1-yl]pyridin-4-yl}bicyclo[1.1.1]pentan-1-yl)-3,4-dihydro-2H-1-benzopyran-2-carboxamide], which EC50 is on record?
Answer: 10 to 50 nM

Question: Which EC50 does the source give for O=C(NC12CC(n3cc(-c4ccc(C5CC5)cn4)cn3)(C1)C2)[C@H]1C[C@@H](O)c2cc(Cl)c(F)cc2O1 [Compound 571, (2R,4R)-6-chloro-N-{3-[4-(5-cyclopropylpyridin-2-yl)-1H-pyrazol-1-yl]bicyclo[1.1.1]pentan-1-yl}-7-fluoro-4-hydroxy-3,4-dihydro-2H-1-benzopyran-2-carboxamide] here?
Answer: < 10 nM

Question: For O=C(NC12CCC(n3cc(-c4ccc(C(F)(F)F)cn4)cn3)(C1)C2)[C@H]1C[C@@H](O)c2cc(Cl)ccc2O1 [Compound 626, (2R,4R)-6-chloro-4-hydroxy-N-(4-{4-[5-(trifluoromethyl)pyridin-2-yl]-1H-pyrazol-1-yl}bicyclo[2.1.1]hexan-1-yl)-3,4-dihydro-2H-1-benzopyran-2-carboxamide], which EC50 is on record?
Answer: 10 to 50 nM

Question: With O=C(N[C@H]1CC[C@H](n2cc(OCCCOC(F)(F)F)cn2)CC1)[C@H]1C[C@@H](O)c2cc(Cl)ccc2O1 [Compound 423, (2R,4R)-6-chloro-4-hydroxy-N-[(1r,4R)-4-{4-[3-(trifluoromethoxy)propoxy]-1H-pyrazol-1-yl}cyclohexyl]-3,4-dihydro-2H-1-benzopyran-2-carboxamide] as the molecule, how does the EC50 read?
Answer: < 10 nM

Question: O=C(N[C@H]1CC[C@H](n2cc(OCCOC(F)(F)F)cn2)CC1)[C@H]1C[C@@H](O)c2ccccc2O1 [Compound 637, (2R,4R)-4-hydroxy-N-[(1r,4R)-4-{4-[2-(trifluoromethoxy)ethoxy]-1H-pyrazol-1-yl}cyclohexyl]-3,4-dihydro-2H-1-benzopyran-2-carboxamide] was tested. Which EC50 did it give?
Answer: 50 to 250 nM

Question: Which EC50 does the source give for COc1cc2cn(C34CC(NC(=O)COc5ccc(Cl)c(Cl)c5)(C3)C4)nc2cn1 [Compound 622, 2-(3,4-dichlorophenoxy)-N-[3-(5-methoxy-2H-pyrazolo[3,4-c]pyridin-2-yl)bicyclo[1.1.1]pentan-1-yl]acetamide] here?
Answer: 10 to 50 nM

Question: For O=C(NC12CC(n3cc(CCCOC(F)(F)F)cn3)(C1)C2)[C@H]1CC(O)c2cc(Cl)ccc2O1 (stereo in doubt) [Compound 463, (2R,4R)-6-chloro-4-hydroxy-N-(3-{4-[3-(trifluoromethoxy)propyl]-1H-pyrazol-1-yl}bicyclo[1.1.1]pentan-1-yl)-3,4-dihydro-2H-1-benzopyran-2-carboxamide], which EC50 is on record?
Answer: < 10 nM

Question: For O=C(CO[C@H]1C[C@@H](OC(F)(F)F)C1)NC12CC(NC(=O)[C@H]3C[C@@H](O)c4cc(C(F)(F)F)c(F)cc4O3)(C1)C2 [Compound 644, (2R,4R)-7-fluoro-4-hydroxy-N-[3-(2-{[(1s,3S)-3-(trifluoromethoxy)cyclobutyl]oxy}acetamido)bicyclo[1.1.1]pentan-1-yl]-6-(trifluoromethyl)-3,4-dihydro-2H-1-benzopyran-2-carboxamide], which EC50 is on record?
Answer: < 10 nM

Question: COc1ccc2nn(C34CC(NC(=O)C5CNc6cc(C(F)(F)F)c(F)cc6O5)(C3)C4)cc2n1 (stereo not shown) [Compound 654, 7-fluoro-N-[3-(5-methoxy-2H-pyrazolo[4,3-b]pyridin-2-yl)bicyclo[1.1.1]pentan-1-yl]-6-(trifluoromethyl)-3,4-dihydro-2H-1,4-benzoxazine-2-carboxamide] was tested. Which EC50 did it give?
Answer: 10 to 50 nM

Question: O=C(CO[C@H]1C[C@@H](OC(F)(F)F)C1)NC12CCC(NC(=O)[C@@H]3C[C@@H](O)c4cc(Cl)ccc4O3)(CC1)C[C@@H]2O (single isomer, unassigned) [Compound 279] was tested. Which EC50 did it give?
Answer: < 10 nM

Question: For COc1ccc2nn(C34CC(NC(=O)[C@H]5C[C@@H](O)c6cc(Cl)ccc6O5)(C3)C4)cc2n1 [Compound 462, (2R,4R)-6-chloro-4-hydroxy-N-[3-(5-methoxy-2H-pyrazolo[4,3-b]pyridin-2-yl)bicyclo[1.1.1]pentan-1-yl]-3,4-dihydro-2H-1-benzopyran-2-carboxamide], which EC50 is on record?
Answer: < 10 nM
